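Cultured in 96-well plates, cells were exposed to test compound for 48 hours across five concentrations. Abbreviation: GI50, concentration required for 50% inhibition of growth.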 The source made the active and inactive calls. Cut-off read from the data, not from the text of the source: active = GI50 up to about 1.1 µM and inactive = higher.
How the values were obtained:
Assay in all cases: NCI-60 cell line screen, 48 h
[1] = test system: RXF 393
[2] = test system: A549
[3] = test system: SNB-19
[4] = test system: HCT-116
[5] = test system: M14
[6] = test system: OVCAR-8
[7] = test system: ACHN
[8] = test system: TK-10
[9] = test system: NCI-H522
[10] = test system: EKVX
[11] = test system: Malme-3M
[12] = test system: CCRF-CEM
[13] = test system: NCI-H460
[14] = test system: OVCAR-4
[15] = test system: SW-620
[16] = test system: LOX IMVI
[17] = test system: UACC-257
[18] = test system: HOP-92
[19] = test system: U-251
[20] = test system: SF-268

Measured: GI50

NC(=O)c1ccc[n+](C2=C([N-]S(=O)(=O)c3ccccc3)C(=O)c3ccccc3C2=O)c1
inactive: [1] 15.8 µM | [2] 19.3 µM | [3] 15.8 µM | [4] 17.5 µM | [5] 15.7 µM | [6] 14.9 µM | [7] 13.4 µM | [8] 20.4 µM | [9] 10.9 µM | [10] 14.3 µM | [11] 6.22 µM | [12] 42.6 µM | [13] 17.9 µM | [14] 1.17 µM | [15] 16.6 µM | [16] 12.9 µM | [17] 14.2 µM | [18] 13.6 µM | [19] 15.1 µM | [20] 16.6 µM

CN(C)Cc1cc(C(=O)/C=C/c2ccc(Cl)cc2Cl)cc(CN(C)C)c1O
inactive: [1] 2.51 µM | [2] 2.89 µM | [3] 4.12 µM | [4] 3.07 µM | [5] 2.75 µM | [6] 2.33 µM | [7] 2.06 µM | [8] 11.5 µM | [9] 2.56 µM | [10] 6.18 µM | [11] 8.85 µM | [12] 2.16 µM | [13] 1.46 µM | [14] 2.22 µM | [15] 2.81 µM | [16] 1.2 µM | [17] 5.11 µM | [18] 3.94 µM | [19] 3.52 µM | [20] 3.88 µM

[N-]=[N+]=C1C(=O)C2CC3CC(C2)CC1C3
inactive: [1] > 100 µM | [2] > 100 µM | [3] > 100 µM | [4] > 100 µM | [5] > 100 µM | [6] > 100 µM | [7] > 100 µM | [8] > 100 µM | [9] > 100 µM | [10] > 100 µM | [11] > 100 µM | [12] > 100 µM | [13] > 100 µM | [14] > 100 µM | [15] 64 µM | [16] > 100 µM | [17] > 100 µM | [18] > 100 µM | [19] > 100 µM | [20] > 100 µM

Cc1nc2cc(/N=N/c3c(O)ccc4ccccc34)ccc2[nH]1
inactive: [1] > 42.4 µM | [2] 44.5 µM | [3] > 96.4 µM | [4] 23.3 µM | [5] 38.4 µM | [6] 27.4 µM | [7] 32.3 µM | [8] > 76.2 µM | [9] 22.8 µM | [10] > 49.9 µM | [11] > 51.2 µM | [12] 16.1 µM | [13] 34.8 µM | [14] 18.8 µM | [15] 32.4 µM | [16] 18.5 µM | [17] 24.8 µM | [18] 24 µM | [19] 27.3 µM | [20] > 68.5 µM

C=C1C(=O)O[C@@H]2/C=C(/C)[C@@H](OC(C)=O)C[C@@H](O)/C(C)=C\[C@@H](OC(=O)[C@]3(C)O[C@@H]3C)[C@@H]12
inactive: [1] 15.5 µM | [2] 31.2 µM | [3] 47.4 µM | [4] 3.89 µM | [5] 12.5 µM | [6] 13.1 µM | [7] 11.8 µM | [8] 15.6 µM | [9] 1.28 µM | [10] 11 µM | [11] 2.86 µM | [12] 2.38 µM | [13] 26.3 µM | [14] 21.9 µM | [15] 5.98 µM | [16] 7.26 µM | [17] 15.7 µM | [18] 12.7 µM | [19] 17.5 µM | [20] 18.9 µM

CC(=O)OC12CC[N+]3(C)CCCCC3C1=Nc1ccccc12 (stereo not given)
inactive: [1] > 100 µM | [2] 40.5 µM | [3] > 100 µM | [4] > 100 µM | [5] > 100 µM | [6] > 100 µM | [7] > 100 µM | [8] > 100 µM | [9] > 100 µM | [10] 17.4 µM | [11] > 100 µM | [12] > 100 µM | [13] > 100 µM | [14] > 100 µM | [15] > 100 µM | [16] > 100 µM | [17] > 100 µM | [18] > 100 µM | [19] > 100 µM | [20] > 100 µM
